The results in this text go back to patent US9192656B2, “Methods and compositions for the treatment of cancer” (QUINTESSENCE BIOSCIENCES, INC., priority 2006, dated 2015).

The subject of series [1] is human prostate cancer cell line (DU145). Description: In vivo inhibition of tumor growth, DU145 xenograft. Details: species or system human tumor cells in nude mice. Particulars: Example 4, Table 8, RNase 1 75 mg/kg 1×wk, docetaxel 8 mg/kg once a week. How it is done: Cells from a non-small cell lung cancer cell line (A549) were grown in nine T175 flasks in F12K media and 10% fetal calf serum until the cells were confluent. 4.5×10^6 cells (in 100 microliters) were injected into the right rear flank of 4-5 week old male homozygous (nu/nu) nude mice (Harlan, Madison Wis.). Tumors were allowed to grow to an average size of ≧75 mm^3 before treatments were initiated. Animals of each tumor type, with the properly sized tumors, were divided into treatment groups, including one set of animals treated weekly with vehicle (phosphate buffered saline, PBS). The vehicle and the test agents were all administered by intraperitoneal injection. Each animal was weighed twice a week during treatment. The tumors were measured twice weekly using calipers. Tumor volume (mm^3) was determined by using the formula for an ellipsoid sphere: […]
The percent tumor growth inhibition (% TGI) is calculated by: […]
This xenograft model was set up as in the previous example except that a human prostate cancer cell line (DU145) was used. The efficacy of wild type human RNase 1 is shown relative to docetaxel. The RNase 1 was administered at 75 mg per kg of body weight of the animal (75 mg/kg 1×wk), while the docetaxel was used at 8 mg/kg once a week. The value of n represents the number of animals in the specific treatment arm of the experiment.
The xenograft model of this example was set up as in the previous example except that a human prostate cancer cell line (DU145) was used. The efficacy of wild type human RNase 1 is shown. The RNase 1 was administered at 75 mg per kg of body weight of the animal once per week (75 mg/kg 1×wk). The value of n represents the number of animals in the specific treatment arm of the experiment.
The xenograft model of this example was set up as in the previous example. The efficacy of wild type human RNase 1 is shown. The RNase 1 was administered at three different doses: (1) 15 mg per kg of body weight of the animal once per week (15 mg/kg 1×wk), (2) 75 mg/kg 1×wk, or (3) 300 mg/kg 1×wk. The value of n represents the number of animals in the specific treatment arm of the experiment.

Series [2] is described as follows: Clinical chemistry and complete blood count plus platelets (DU145 xenograft mice). The format is in vivo. The method, then: Clinical chemistry and a complete blood count (CBC) plus platelets were performed on whole blood and serum samples collected from the mice 24 hours after the last treatment of the prostate xenograft model above. […] Creatinine was also tested and found not to differ. The levels of the liver enzymes, gamma glutamyl transferase (GGT) and alanine transaminase (ALT) in all treatment groups were similar (GGT data not shown.). The values were determined for the various treatment groups of the prostate (DU145) xenograft study for clinical chemistry (A., B.), complete blood count (C., D.), and platelets (F.). Abbreviations: TCO2, amount of bicarbonate ion (HCO3^−); Anion Gap, [Na+K]—[Cl+HCO3]; ALT, alanine aminotransferase; WBC, white blood count; RBC, red blood count; HGB, hemoglobin; RBC HGB, (CHCM×RBC×MCV)/1000); MCH, mean corpuscular hemoglobin; MCHC, mean corpuscular hemoglobin concentration; RDW, red cell distribution width; MPV, mean platelet volume; HCT, hematocrit; MCV, mean corpuscular volume.

Molecules are shown by their SMILES.

As for `CC(=O)O[C@@]12CO[C@@H]1C[C@H](O)[C@@]1(C)C(=O)[C@H](O)C3=C(C)[C@@H](OC(=O)[C@H](O)[C@@H](NC(=O)OC(C)(C)C)c4ccccc4)C[C@@](O)([C@@H](OC(=O)c4ccccc4)[C@H]21)C3(C)C` [Docetaxel, (2R,3S)-N-carboxy-3-phenylisoserine, N-tert-butyl ester, 13-ester with 5b-20-epoxy-12a,4,7b,10b,13a-hexahydroxytax-11-en-9-one 4-acetate 2-benzoate, trihydrate, reference compound], in series [1], the “% TGI” value was 92%, the “(Final − start)” value is reported as 180 mm^3, the “(Final − start)/Control” value was found to be 0.08 and the Final volume is recorded as 249 mm^3. For the same compound, the Starting volume in series [1] (at start) was 60 mm^3. In addition, the Creatinine versus vehicle result in series [2] (24 hours after the last treatment) was “not to differ”. The “Clinical chemistry and complete blood count plus platelets, all tests, versus vehicle” value in series [2] (whole blood and serum 24 hours after the last treatment, Mann-Whitney U test) is reported as “not to be significantly different”.
